Assay results taken from the kinase profiling compilation of Christmann-Franck et al. (2016).

Tests used:
Assay in all cases: radiometric filter-binding kinase assay, Kinase HotSpot
Settings in all cases: compound 0.5 µM; ATP 10 µM
AKT2 (human) = AKT2 (human) (UniProt P31751)
BRSK2 (human) = BRSK2 (human) (UniProt Q8IWQ3)
CDK1 CCNA2 (human) = CDK1 CCNA2 (human) (UniProt P06493+P20248)
CHUK (human) = CHUK (human) (UniProt O15111)
CLK4 (human) = CLK4 (human) (UniProt Q9HAZ1)
CSNK1G3 (human) = CSNK1G3 (human) (UniProt Q9Y6M4)
Chain of CSNK1G3 (human) (Q9Y6M4 whole entry, looked up): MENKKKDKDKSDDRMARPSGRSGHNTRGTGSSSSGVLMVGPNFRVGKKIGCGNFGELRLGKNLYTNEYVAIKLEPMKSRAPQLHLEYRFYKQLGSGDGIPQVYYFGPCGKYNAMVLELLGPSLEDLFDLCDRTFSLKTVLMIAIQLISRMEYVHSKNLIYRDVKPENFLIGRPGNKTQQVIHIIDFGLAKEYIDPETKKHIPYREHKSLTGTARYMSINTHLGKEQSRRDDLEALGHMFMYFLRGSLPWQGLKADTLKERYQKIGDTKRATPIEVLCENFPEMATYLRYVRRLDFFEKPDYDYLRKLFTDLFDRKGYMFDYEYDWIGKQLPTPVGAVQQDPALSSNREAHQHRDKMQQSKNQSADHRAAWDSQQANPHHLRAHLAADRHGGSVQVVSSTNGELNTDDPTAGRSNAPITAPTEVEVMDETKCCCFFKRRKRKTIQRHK

DAPK1 (human) = DAPK1 (human) (UniProt P53355)
Chain of DAPK1 (human) (P53355 whole entry, looked up): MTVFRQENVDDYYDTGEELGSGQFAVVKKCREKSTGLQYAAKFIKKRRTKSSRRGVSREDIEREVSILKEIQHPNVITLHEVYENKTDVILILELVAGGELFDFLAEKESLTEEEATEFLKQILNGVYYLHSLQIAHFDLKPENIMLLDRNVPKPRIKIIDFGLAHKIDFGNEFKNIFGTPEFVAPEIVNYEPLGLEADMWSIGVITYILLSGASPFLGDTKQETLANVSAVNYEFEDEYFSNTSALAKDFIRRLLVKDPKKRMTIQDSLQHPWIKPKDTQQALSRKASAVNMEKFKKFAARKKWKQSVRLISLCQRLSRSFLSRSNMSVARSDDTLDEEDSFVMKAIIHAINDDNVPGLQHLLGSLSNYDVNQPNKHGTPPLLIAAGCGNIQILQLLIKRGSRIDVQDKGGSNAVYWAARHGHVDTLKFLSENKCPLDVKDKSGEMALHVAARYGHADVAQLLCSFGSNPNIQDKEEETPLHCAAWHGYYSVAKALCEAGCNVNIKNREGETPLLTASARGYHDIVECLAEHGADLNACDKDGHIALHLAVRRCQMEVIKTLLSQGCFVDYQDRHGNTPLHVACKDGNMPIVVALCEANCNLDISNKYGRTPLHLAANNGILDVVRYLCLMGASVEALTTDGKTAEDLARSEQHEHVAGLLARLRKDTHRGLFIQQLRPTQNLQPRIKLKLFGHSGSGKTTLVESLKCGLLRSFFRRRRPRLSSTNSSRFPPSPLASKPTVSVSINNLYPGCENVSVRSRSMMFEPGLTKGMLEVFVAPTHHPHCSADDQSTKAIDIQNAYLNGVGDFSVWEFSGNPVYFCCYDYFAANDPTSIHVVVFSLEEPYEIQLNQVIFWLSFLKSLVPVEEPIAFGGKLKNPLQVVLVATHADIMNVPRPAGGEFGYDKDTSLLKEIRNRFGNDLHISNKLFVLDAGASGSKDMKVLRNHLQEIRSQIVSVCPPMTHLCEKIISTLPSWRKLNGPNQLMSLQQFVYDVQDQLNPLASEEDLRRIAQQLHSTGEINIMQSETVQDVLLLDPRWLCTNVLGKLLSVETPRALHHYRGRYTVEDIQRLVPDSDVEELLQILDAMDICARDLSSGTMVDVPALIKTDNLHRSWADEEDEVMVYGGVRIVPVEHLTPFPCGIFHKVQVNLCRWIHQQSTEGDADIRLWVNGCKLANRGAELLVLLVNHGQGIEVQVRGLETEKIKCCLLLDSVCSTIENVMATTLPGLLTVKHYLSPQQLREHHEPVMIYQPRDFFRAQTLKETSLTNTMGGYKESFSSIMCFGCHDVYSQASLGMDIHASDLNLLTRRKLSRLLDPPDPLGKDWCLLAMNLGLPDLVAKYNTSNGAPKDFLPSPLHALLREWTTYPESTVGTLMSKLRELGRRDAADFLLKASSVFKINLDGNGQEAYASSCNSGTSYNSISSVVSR

DDR2 (human) = DDR2 (human) (UniProt Q16832)
DMPK (human) = DMPK (human) (UniProt Q09013)
Chain of DMPK (human) (Q09013 whole entry, looked up): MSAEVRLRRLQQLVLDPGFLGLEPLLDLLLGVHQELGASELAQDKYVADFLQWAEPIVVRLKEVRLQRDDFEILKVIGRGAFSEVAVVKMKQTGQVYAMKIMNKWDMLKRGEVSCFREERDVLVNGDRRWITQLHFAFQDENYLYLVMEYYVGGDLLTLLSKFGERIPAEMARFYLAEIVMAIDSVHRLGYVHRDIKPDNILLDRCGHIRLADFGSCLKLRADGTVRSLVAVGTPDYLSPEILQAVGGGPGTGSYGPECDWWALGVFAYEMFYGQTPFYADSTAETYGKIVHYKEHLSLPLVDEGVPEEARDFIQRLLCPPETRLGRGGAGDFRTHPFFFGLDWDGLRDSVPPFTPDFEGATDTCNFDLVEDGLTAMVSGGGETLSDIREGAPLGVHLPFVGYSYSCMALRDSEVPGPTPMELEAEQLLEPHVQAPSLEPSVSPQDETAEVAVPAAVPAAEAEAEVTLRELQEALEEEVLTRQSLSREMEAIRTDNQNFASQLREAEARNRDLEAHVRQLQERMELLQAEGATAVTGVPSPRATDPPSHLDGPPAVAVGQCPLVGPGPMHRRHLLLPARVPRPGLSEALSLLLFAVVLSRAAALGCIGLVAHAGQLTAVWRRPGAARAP

DYRK3 (human) = DYRK3 (human) (UniProt O43781)
Chain of DYRK3 (human) (O43781 whole entry, looked up): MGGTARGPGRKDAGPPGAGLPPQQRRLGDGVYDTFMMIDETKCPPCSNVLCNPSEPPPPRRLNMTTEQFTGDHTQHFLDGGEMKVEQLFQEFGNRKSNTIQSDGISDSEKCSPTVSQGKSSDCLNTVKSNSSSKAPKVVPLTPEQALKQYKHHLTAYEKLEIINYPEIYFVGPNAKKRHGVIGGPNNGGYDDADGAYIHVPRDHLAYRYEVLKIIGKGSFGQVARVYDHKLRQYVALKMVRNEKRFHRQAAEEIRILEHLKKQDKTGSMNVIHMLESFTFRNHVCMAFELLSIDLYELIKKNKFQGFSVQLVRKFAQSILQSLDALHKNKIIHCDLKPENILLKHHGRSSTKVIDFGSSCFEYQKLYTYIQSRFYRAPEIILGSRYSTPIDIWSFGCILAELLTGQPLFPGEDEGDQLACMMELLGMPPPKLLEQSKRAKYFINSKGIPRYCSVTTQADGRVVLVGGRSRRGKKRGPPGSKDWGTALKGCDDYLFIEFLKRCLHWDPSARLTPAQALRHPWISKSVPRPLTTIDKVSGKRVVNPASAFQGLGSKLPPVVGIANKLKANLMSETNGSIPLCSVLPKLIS

EGFR (human) = EGFR (human) (UniProt P00533)
EPHA1 (human) = EPHA1 (human) (UniProt P21709)
EPHA3 (human) = EPHA3 (human) (UniProt P29320)
EPHB4 (human) = EPHB4 (human) (UniProt P54760)
GSK3B (human) = GSK3B (human) (UniProt P49841)
HIPK2 (human) = HIPK2 (human) (UniProt Q9H2X6)
IKBKB (human) = IKBKB (human) (UniProt O14920)
IKBKE (human) = IKBKE (human) (UniProt Q14164)
KIT (human) = KIT (human) (UniProt P10721)
MAP3K10 (human) = MAP3K10 (human) (UniProt Q02779)
MAPK9 (human) = MAPK9 (human) (UniProt P45984)
MAPKAPK2 (human) = MAPKAPK2 (human) (UniProt P49137)
MARK4 (human) = MARK4 (human) (UniProt Q96L34)
MERTK (human) = MERTK (human) (UniProt Q12866)
MET (human) = MET (human) (UniProt P08581)
MST1R (human) = MST1R (human) (UniProt Q04912)
NEK11 (human) = NEK11 (human) (UniProt Q8NG66)
NEK4 (human) = NEK4 (human) (UniProt P51957)
NTRK1 (human) = NTRK1 (human) (UniProt P04629)
Chain of NTRK1 (human) (P04629 whole entry, looked up): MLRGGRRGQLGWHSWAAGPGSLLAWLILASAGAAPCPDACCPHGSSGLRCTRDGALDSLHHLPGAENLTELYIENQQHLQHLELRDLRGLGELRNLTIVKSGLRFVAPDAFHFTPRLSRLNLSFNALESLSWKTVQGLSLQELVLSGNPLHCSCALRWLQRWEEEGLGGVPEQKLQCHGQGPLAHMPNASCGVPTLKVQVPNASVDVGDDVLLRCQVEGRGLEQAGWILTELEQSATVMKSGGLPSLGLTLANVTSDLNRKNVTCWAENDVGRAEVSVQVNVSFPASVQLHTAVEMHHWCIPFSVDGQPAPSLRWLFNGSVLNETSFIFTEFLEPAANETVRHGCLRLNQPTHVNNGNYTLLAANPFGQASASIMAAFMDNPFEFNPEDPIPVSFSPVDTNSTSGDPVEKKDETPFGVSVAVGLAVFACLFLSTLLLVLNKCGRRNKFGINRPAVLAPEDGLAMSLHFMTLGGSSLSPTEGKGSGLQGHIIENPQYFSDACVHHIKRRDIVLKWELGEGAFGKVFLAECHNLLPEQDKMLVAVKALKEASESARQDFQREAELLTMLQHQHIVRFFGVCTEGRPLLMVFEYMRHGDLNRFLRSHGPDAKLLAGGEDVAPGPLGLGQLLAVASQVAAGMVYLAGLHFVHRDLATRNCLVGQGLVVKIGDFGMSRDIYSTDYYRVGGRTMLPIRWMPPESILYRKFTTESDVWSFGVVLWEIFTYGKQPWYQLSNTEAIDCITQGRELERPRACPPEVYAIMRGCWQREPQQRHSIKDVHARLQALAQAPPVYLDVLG

PAK1 (human) = PAK1 (human) (UniProt Q13153)
PAK2 (human) = PAK2 (human) (UniProt Q13177)
PAK6 (human) = PAK6 (human) (UniProt Q9NQU5)
RAF1 (human) = RAF1 (human) (UniProt P04049)
ROCK1 (human) = ROCK1 (human) (UniProt Q13464)
SGK2 (human) = SGK2 (human) (UniProt Q9HBY8)
SYK (human) = SYK (human) (UniProt P43405)
TEK (human) = TEK (human) (UniProt Q02763)
TGFBR1 (human) = TGFBR1 (human) (UniProt P36897)
[1] = target: TYK2 JH1 catalytic (human) (UniProt P29597)
Chain of TYK2 JH1 catalytic (human) (P29597 whole entry, looked up): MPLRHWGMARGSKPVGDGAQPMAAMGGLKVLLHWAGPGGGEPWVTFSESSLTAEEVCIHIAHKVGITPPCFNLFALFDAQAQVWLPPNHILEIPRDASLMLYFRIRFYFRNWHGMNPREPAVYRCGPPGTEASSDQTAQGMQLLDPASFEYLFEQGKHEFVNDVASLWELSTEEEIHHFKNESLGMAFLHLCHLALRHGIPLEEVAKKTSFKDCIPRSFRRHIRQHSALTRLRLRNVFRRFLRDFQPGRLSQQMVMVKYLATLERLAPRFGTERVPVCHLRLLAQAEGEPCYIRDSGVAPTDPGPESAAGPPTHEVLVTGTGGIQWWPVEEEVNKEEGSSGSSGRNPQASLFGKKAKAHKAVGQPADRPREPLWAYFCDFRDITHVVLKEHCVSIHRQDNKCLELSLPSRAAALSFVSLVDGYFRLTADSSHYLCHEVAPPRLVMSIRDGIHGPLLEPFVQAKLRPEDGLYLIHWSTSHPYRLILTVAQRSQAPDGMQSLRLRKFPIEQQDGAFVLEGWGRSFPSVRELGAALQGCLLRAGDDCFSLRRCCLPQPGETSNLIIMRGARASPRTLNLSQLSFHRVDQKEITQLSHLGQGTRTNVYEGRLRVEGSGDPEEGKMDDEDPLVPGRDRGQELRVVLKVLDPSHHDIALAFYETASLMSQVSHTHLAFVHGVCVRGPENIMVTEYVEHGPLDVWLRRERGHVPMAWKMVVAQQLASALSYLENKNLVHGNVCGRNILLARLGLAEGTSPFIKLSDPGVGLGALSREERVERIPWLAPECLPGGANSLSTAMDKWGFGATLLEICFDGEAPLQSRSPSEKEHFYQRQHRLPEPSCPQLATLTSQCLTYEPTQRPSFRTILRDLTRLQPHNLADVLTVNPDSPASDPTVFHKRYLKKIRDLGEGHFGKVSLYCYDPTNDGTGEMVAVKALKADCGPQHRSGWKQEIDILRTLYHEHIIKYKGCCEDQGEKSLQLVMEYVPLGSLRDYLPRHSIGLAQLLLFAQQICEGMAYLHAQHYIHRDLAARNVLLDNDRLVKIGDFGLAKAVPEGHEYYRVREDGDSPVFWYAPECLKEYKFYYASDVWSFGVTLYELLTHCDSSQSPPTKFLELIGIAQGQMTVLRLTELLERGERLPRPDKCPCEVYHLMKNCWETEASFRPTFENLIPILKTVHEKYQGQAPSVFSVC

WNK3 (human) = WNK3 (human) (UniProt Q9BYP7)
ZAP70 (human) = ZAP70 (human) (UniProt P43403)
CSNK2A2 (human) = CSNK2A2 (human) (UniProt P19784)

## CCCC(=O)Oc1ccc2[nH]c(C(=O)c3cc4ccccc4[nH]3)cc2c1
AKT2 (human)
  residual activity: 105%
BRSK2 (human)
  residual activity: 98.8%
CDK1 CCNA2 (human)
  residual activity: 87.3%
CHUK (human)
  residual activity: 94.5%
CLK4 (human)
  residual activity: 90.2%
CSNK1G3 (human)
  residual activity: 82.7%
DAPK1 (human)
  residual activity: 85.8%
DDR2 (human)
  residual activity: 89.9%
DMPK (human)
  residual activity: 94.4%
DYRK3 (human)
  residual activity: 92.6%
EGFR (human)
  residual activity: 95.2%
EPHA1 (human)
  residual activity: 88.8%
EPHA3 (human)
  residual activity: 96.8%
EPHB4 (human)
  residual activity: 101%
GSK3B (human)
  residual activity: 94%
HIPK2 (human)
  residual activity: 92.1%
IKBKB (human)
  residual activity: 98.7%
IKBKE (human)
  residual activity: 91.4%
KIT (human)
  residual activity: 82.4%
MAP3K10 (human)
  residual activity: 87.7%
MAPK9 (human)
  residual activity: 76%
MAPKAPK2 (human)
  residual activity: 92.4%
MARK4 (human)
  residual activity: 84.1%
MERTK (human)
  residual activity: 96.7%
MET (human)
  residual activity: 103%
MST1R (human)
  residual activity: 103%
NEK11 (human)
  residual activity: 101%
NEK4 (human)
  residual activity: 96.4%
NTRK1 (human)
  residual activity: 98.6%
PAK1 (human)
  residual activity: 95.8%
PAK2 (human)
  residual activity: 102%
PAK6 (human)
  residual activity: 94.5%
RAF1 (human)
  residual activity: 98.7%
ROCK1 (human)
  residual activity: 105%
SGK2 (human)
  residual activity: 99.4%
SYK (human)
  residual activity: 93.9%
TEK (human)
  residual activity: 100%
TGFBR1 (human)
  residual activity: 101%
[1]
  residual activity: 90.7%
WNK3 (human)
  residual activity: 101%
ZAP70 (human)
  residual activity: 100%

## CNc1cc2c(Nc3cccc(Br)c3)ncnc2cn1
AKT2 (human)
  residual activity: 99.6%
BRSK2 (human)
  residual activity: 90.9%
CDK1 CCNA2 (human)
  residual activity: 86.5%
CHUK (human)
  residual activity: 99%
CLK4 (human)
  residual activity: 60.9%
CSNK1G3 (human)
  residual activity: 86.3%
DAPK1 (human)
  residual activity: 80.5%
DDR2 (human)
  residual activity: 100%
DMPK (human)
  residual activity: 112%
DYRK3 (human)
  residual activity: 84.4%
EGFR (human)
  residual activity: 1.99%
EPHA1 (human)
  residual activity: 103%
EPHA3 (human)
  residual activity: 96.1%
EPHB4 (human)
  residual activity: 99.6%
GSK3B (human)
  residual activity: 89.6%
HIPK2 (human)
  residual activity: 98.4%
IKBKB (human)
  residual activity: 98.2%
IKBKE (human)
  residual activity: 87.1%
KIT (human)
  residual activity: 86.4%
MAP3K10 (human)
  residual activity: 90.1%
MAPK9 (human)
  residual activity: 96.5%
MAPKAPK2 (human)
  residual activity: 99.6%
MARK4 (human)
  residual activity: 84.5%
MERTK (human)
  residual activity: 87.5%
MET (human)
  residual activity: 106%
MST1R (human)
  residual activity: 73.9%
NEK11 (human)
  residual activity: 106%
NEK4 (human)
  residual activity: 94.9%
NTRK1 (human)
  residual activity: 95.9%
PAK1 (human)
  residual activity: 94.9%
PAK2 (human)
  residual activity: 92.7%
PAK6 (human)
  residual activity: 96.6%
RAF1 (human)
  residual activity: 87.8%
ROCK1 (human)
  residual activity: 98.8%
SGK2 (human)
  residual activity: 96.6%
SYK (human)
  residual activity: 95.3%
TEK (human)
  residual activity: 87.9%
TGFBR1 (human)
  residual activity: 97.7%
[1]
  residual activity: 80.8%
WNK3 (human)
  residual activity: 97.4%
ZAP70 (human)
  residual activity: 99.1%

## c1ccc(-c2n[nH]cc2-c2ccnc3ccccc23)nc1
AKT2 (human)
  residual activity: 93%
BRSK2 (human)
  residual activity: 101%
CDK1 CCNA2 (human)
  residual activity: 82.7%
CHUK (human)
  residual activity: 94.2%
CLK4 (human)
  residual activity: 101%
CSNK1G3 (human)
  residual activity: 96%
CSNK2A2 (human)
  residual activity: 96.7%
DAPK1 (human)
  residual activity: 111%
DDR2 (human)
  residual activity: 95.1%
DMPK (human)
  residual activity: 106%
DYRK3 (human)
  residual activity: 104%
EGFR (human)
  residual activity: 81.8%
EPHA1 (human)
  residual activity: 97.7%
EPHA3 (human)
  residual activity: 99.3%
EPHB4 (human)
  residual activity: 89.1%
GSK3B (human)
  residual activity: 95.2%
HIPK2 (human)
  residual activity: 91.3%
IKBKB (human)
  residual activity: 105%
IKBKE (human)
  residual activity: 101%
KIT (human)
  residual activity: 93.5%
MAP3K10 (human)
  residual activity: 104%
MAPK9 (human)
  residual activity: 98.9%
MAPKAPK2 (human)
  residual activity: 100%
MARK4 (human)
  residual activity: 105%
MERTK (human)
  residual activity: 92.6%
MET (human)
  residual activity: 94.1%
MST1R (human)
  residual activity: 99.9%
NEK11 (human)
  residual activity: 91.8%
NEK4 (human)
  residual activity: 95.8%
NTRK1 (human)
  residual activity: 102%
PAK1 (human)
  residual activity: 96.3%
PAK2 (human)
  residual activity: 57%
PAK6 (human)
  residual activity: 106%
RAF1 (human)
  residual activity: 89.5%
ROCK1 (human)
  residual activity: 103%
SGK2 (human)
  residual activity: 101%
SYK (human)
  residual activity: 99.7%
TEK (human)
  residual activity: 98.8%
TGFBR1 (human)
  residual activity: 41.6%
[1]
  residual activity: 101%
ZAP70 (human)
  residual activity: 100%

## Nc1ncnc2[nH]nc(Nc3ccc(F)cc3)c12
AKT2 (human)
  residual activity: 108%
BRSK2 (human)
  residual activity: 60.6%
CDK1 CCNA2 (human)
  residual activity: 93%
CHUK (human)
  residual activity: 99.5%
CLK4 (human)
  residual activity: 88.7%
CSNK1G3 (human)
  residual activity: 97.9%
DAPK1 (human)
  residual activity: 116%
DDR2 (human)
  residual activity: 94.2%
DMPK (human)
  residual activity: 114%
DYRK3 (human)
  residual activity: 89%
EGFR (human)
  residual activity: 100%
EPHA1 (human)
  residual activity: 101%
EPHA3 (human)
  residual activity: 107%
EPHB4 (human)
  residual activity: 87.8%
GSK3B (human)
  residual activity: 101%
HIPK2 (human)
  residual activity: 106%
IKBKB (human)
  residual activity: 105%
IKBKE (human)
  residual activity: 100%
KIT (human)
  residual activity: 93.5%
MAP3K10 (human)
  residual activity: 85.9%
MAPK9 (human)
  residual activity: 103%
MAPKAPK2 (human)
  residual activity: 105%
MARK4 (human)
  residual activity: 99.4%
MERTK (human)
  residual activity: 90.7%
MET (human)
  residual activity: 124%
MST1R (human)
  residual activity: 93.7%
NEK11 (human)
  residual activity: 102%
NEK4 (human)
  residual activity: 92.8%
NTRK1 (human)
  residual activity: 109%
PAK1 (human)
  residual activity: 95.2%
PAK2 (human)
  residual activity: 103%
PAK6 (human)
  residual activity: 109%
RAF1 (human)
  residual activity: 96.7%
ROCK1 (human)
  residual activity: 100%
SGK2 (human)
  residual activity: 96.5%
SYK (human)
  residual activity: 97.4%
TEK (human)
  residual activity: 94.9%
[1]
  residual activity: 92.3%
WNK3 (human)
  residual activity: 103%
ZAP70 (human)
  residual activity: 95.2%

## CCOC(=O)c1c(C)[nH]c(/C=C2\C(=O)Nc3ccccc32)c1C
AKT2 (human)
  residual activity: 87.6%
BRSK2 (human)
  residual activity: 98.7%
CDK1 CCNA2 (human)
  residual activity: 96.3%
CHUK (human)
  residual activity: 102%
CLK4 (human)
  residual activity: 94.3%
CSNK1G3 (human)
  residual activity: 97.9%
CSNK2A2 (human)
  residual activity: 94.7%
DAPK1 (human)
  residual activity: 100%
DDR2 (human)
  residual activity: 98%
DMPK (human)
  residual activity: 101%
DYRK3 (human)
  residual activity: 102%
EGFR (human)
  residual activity: 92.2%
EPHA1 (human)
  residual activity: 90.8%
EPHA3 (human)
  residual activity: 96.3%
EPHB4 (human)
  residual activity: 89.5%
GSK3B (human)
  residual activity: 105%
IKBKB (human)
  residual activity: 101%
IKBKE (human)
  residual activity: 93.5%
KIT (human)
  residual activity: 46.3%
MAP3K10 (human)
  residual activity: 98.5%
MAPK9 (human)
  residual activity: 93.9%
MAPKAPK2 (human)
  residual activity: 98.6%
MARK4 (human)
  residual activity: 99.6%
MERTK (human)
  residual activity: 69.3%
MET (human)
  residual activity: 87.4%
MST1R (human)
  residual activity: 87.5%
NEK11 (human)
  residual activity: 96.6%
NEK4 (human)
  residual activity: 95.1%
NTRK1 (human)
  residual activity: 69.9%
PAK1 (human)
  residual activity: 99.9%
PAK2 (human)
  residual activity: 92.5%
PAK6 (human)
  residual activity: 81.4%
RAF1 (human)
  residual activity: 89.6%
ROCK1 (human)
  residual activity: 99.1%
SGK2 (human)
  residual activity: 93.7%
SYK (human)
  residual activity: 89.3%
TGFBR1 (human)
  residual activity: 99.7%
[1]
  residual activity: 89.9%
WNK3 (human)
  residual activity: 104%
ZAP70 (human)
  residual activity: 98.8%
